Measurements reported in EP0598515A1, “Method for herbicidal activity-enhancing, activity-enhanced herbicidal composition and activity-enhancing composition” (ISHIHARA SANGYO KAISHA LTD., priority 1992, dated 1994).
Where “and” joins values, the source holds several entries; their conditions need not be identical. Identical values can stand only once.

Test system: Crabgrass (Digitaria sanginalis L.)
Assay: Test Example 5: pot test with kinds of vegetable oil
Format: in vivo
Settings: Example 7 water dispersible granules, 0.2% by volume Frigate + 0.4% by volume vegetable oil (90 parts oil, 10 parts Geronol VO/278), 23 days after treatment, duplicate
Protocol: Crabgrass (Digitaria sanginalis L.) seeds were sown in 1/1,000,000-hectare pots filled with upland soil and arranged in a duplicate system. When the crabgrass plants grew to a 3.5- to 4.0-leaf stage, water dispersible granules obtained in Example 7 described hereinbefore was diluted with 200 liters/hectare of water containing 0.2% by volume of Frigate and 0.4% by volume of a vegetable oil which was previously prepared by mixing with a predetermined amount of Geronol VO/278 (trade name) and was applied foliarly to the plants with a small spray gun.
Twenty three days after treatment, the growth inhibition of the plants was evaluated with visual observation in the same manner as in Test Example 1 and are shown in Table 5.
In the test, a vegetable oil, a fatty acid originated therefrom and an alkylester of the fatty acid were used as the vegetable oil and which are each of mixture of 10 parts by weight of Geronol VO/278 and 90 parts by weight of the following vegetable oil, fatty acids originated from vegetable oils and alkylesters of fatty acids. • (a) corn oil • (b) fatty acid originated from corn oil (prepared by hydrolysis of corn oil) • (c) methylester of (b) • (d) methylester of fatty acid originated from cottonseed oil • (e) methylester of fatty acid originated from rapeseed oil • (f) methyl oleate (trade name: ADJ-100) • (g) butyl oleate (trial product No. 93091; produced by Takemoto Oils and Fats) TABLE 5

| SMILES | Growth Inhibition (%) of Crabgrass (Compound A 2.5 g/ha) [%] | Growth Inhibition (%) of Crabgrass (Compound A 5 g/ha) |
| --- | --- | --- |
| CCCCCCCC/C=C\CCCCCCCC(=O)OC [f, methyl oleate] | 60 | 90% |
| CCCCCCCC/C=C\CCCCCCCC(=O)OCCCC [g, butyl oleate] | 70 | 95% and 80% |
